Assay results published in patent publication US20080288176A1 (priority 2005, published 2008).
Values belong to the compound of their own block, whether it stands above or below them.

Tests used:
[1] = Enzymatic hydrolysis in liver microsomal preparations (LC-MS); type: in vitro ADME; conditions: for Time to complete hydrolysis (cleavage of the diazeniumdiolate): liver microsomal preparations
Experimental: The sensitivity of the prodrug 3 towards enzymatic hydrolysis was evaluated by LC-MS. Liver and intestinal microsomal preparations were used. […] However, these rates were slower than the enzymatic hydrolysis rates determined for the conversion of 1→4 and 2→5 (complete hydrolysis observed in 10 and 30 minutes respectively in liver microsomal preparations).

[2] = Chemical stability (loss of diazeniumdiolate) in phosphate buffer; type: physicochemical
Experimental: They varied only in the nitrogen substituent of the amino acid, i.e. free amine (1), acetyl (2) and pivaloyl (3) groups. Their chemical stability was evaluated in phosphate buffer at different pH's over a 30 minute period (Table 11).

[3] = test system: male Wistar rats; assay: Urine alanine aminopeptidase to creatinine ratio (proximal tubular kidney damage); type: in vivo, rat; conditions: for AAP/Cr (urine alanine aminopeptidase to creatinine), Mean: oral gavage, urine collected for 6 hours
Excerpt: (§1) Myocardial infarction and ischemic events in high risk patients led one of the most popular COX-2 inhibitors to its demise (Bresalier et al., 2005). Non-selective NSAIDS may also cause similar problems due to their ability to inhibit COX-2. […] Adenosine diphosphate (ADP) generation is an indicator of myocardial infarction which has no connection with the arachidonic acid cascade (Borna et al., 2005). […] Long term NSAID use has been linked to kidney damage and hypertension (Zafirovska et al., 1993). […] This was associated with an increase in the urine the ratio of alanine-amino-peptidase (AAP) and creatinine.
(§2) Table 1 is a summary of the protocol for a study which was conducted in male Wistar rats weighing 275-300 grams. The animals were allowed to acclimatize for at least five days prior to the commencement of the study. The study protocol was approved by the local animal ethics committee.
(§3) All test animals, housed in metabolic cages, had urine collected over wet ice for 6 hours after dosing. Aliquots of the urine from each animal were collected to determine creatinine concentration. The remainder of the urine was centrifuged at 1000 g for 10 minutes. The supernatant was collected and mixed with analytical grade ethylene glycol at a rate of 0.4 mL ethylene glycol per 1 mL urine supernatant. The ethylene glycol/urine mixture was stored at −80° C. until analysis.

[4] = test system: male Wistar rats; assay: Gastric ulcer index after oral dosing; type: in vivo, rat; conditions: for Ulcer Indices, Mean: oral gavage, naproxen 250 mg/kg or molar equivalent (ROF 250 mg/kg), 6 h after dosing, mean aggregate gastric ulcer length; for Ulcerogenicity (in words): oral, 6 h
Experimental: as §2
(§4) The animals were fasted overnight prior to test substance administration. The test substance was administered orally by gavage on the morning of the study day. All test animals had blood collected during the test period in both EDTA (ethylenediaminetetraacetic acid) tubes and SST (Serum Separator Tubes) at 1, 3 and 6 hours after dosing. Blood was collected into EDTA tubes only at 1 and 3 hours by tail tip amputation. Volume of blood collected was between 0.5 and 1 mL at each of these collections. The final collection was by puncture of the abdominal vena cava under isoflurane general anesthesia. Final blood collection was targeted as follows: 1st EDTA #1—1.5 mL; 2nd SST—1.5 mL; 3rd EDTA #2—as much as possible.
Each animal from all groups underwent a full necropsy under the supervision of a board certified veterinary pathologist. The stomach of each rat was cut along the greater curvature, contents removed into a polypropylene (Falcon) tube, the mucosa rinsed with saline and any obvious ulcers or erosions were measured along the longest axis. This measurement was recorded for each ulcer or erosion observed in each stomach. The falcon tubes and their contents were frozen at −80° C. and shipped to Novokin on dry ice for analysis.
The aggregate length of all gastric ulcers found in a given animal was calculated. The mean aggregate ulcer length across animals in a group was calculated. This mean value was reported as the ulcer index for that group.
The ulcer index of each modified drug was compared with the ulcer index of its associated parent drug and the controls using analysis of variance and Duncan's multiple range test for pairwise comparisons. Statistical analysis was done using SAS® (SAS Institute Inc., Cary, N.C.).

[5] = test system: cardiac tissue prostacyclin (PGI2) to thromboxane A2 (TXB2) ratio; assay: Cardiac tissue prostacyclin to thromboxane ratio; type: in vivo, rat; conditions: male Wistar rats; for PGI2/TXA2 ratio comparison (in words): cardiac tissue; for Cardiac Tissue PGI2/TXB2, Mean: oral gavage, heart removed 6 hours after dosing
Excerpt: as §1, §2
All rats were euthanized by removal of the heart 6 hours after initial dosing, following final blood collections. Immediately after terminal blood collections were complete, the thorax was opened and the heart removed. The heart was cut in half longitudinally. Half of the heart was placed in formalin for histological examination. The other half was quickly rinsed in saline and then freeze-clamped (crushed between the jaws of a pair of modified tongs, cooled by liquid nitrogen). An entire kidney was freeze-clamped. The other kidney was left in situ for examination by the pathologist. Freeze-clamped tissues were wrapped in labeled aluminum foil and stored in liquid nitrogen until they could be transferred to a −80° C. freezer. Freeze-clamped tissues were shipped on dry ice to NOVOKIN for analysis.

[6] = Serum nitrate concentration (NO release) after oral dosing; type: in vivo, rat; conditions: male Wistar rats, oral gavage, at 6 hours
Experimental: as §2, §4
EDTA samples were centrifuged, and the plasma portion was collected and frozen at −80° C. SST samples were incubated at 37° C. for approximately 45 minutes, centrifuged, and the serum was collected and frozen at −80° C. until analysis.

[7] = test system: male Wistar rats; assay: Urine N-acetylglucosaminidase to creatinine ratio (distal tubule toxicity); type: in vivo, rat; conditions: oral gavage, urine collected for 6 hours
Experimental: as §2, §3

[8] = Hydrolysis in rat plasma; type: in vitro ADME
Excerpt: (§5) The physiologically based pharmacokinetic/pharmacodynamic model of the present invention contains a series of compartments that describe the time course of a nonsteroidal anti-inflammatory prodrug, its active metabolites and nitric oxide release in intestine, liver, kidneys, blood/plasma and heart after prodrug administration. The time course of the prodrug, its active metabolites and nitric oxide release can be simulated using a series of in vitro and in silico inputs. The stability of each component in the gastrointestinal lumen is estimated using data collected from artificial gastric and intestinal juice. Intestinal metabolism is estimated using intestinal microsomes and absorption rate is estimated using permeability data collected from a cell monolayer such as Caco-2. Hepatic elimination is estimated using liver microsomes and stability in plasma is calculated using degradation of each component in the media. Plasma protein binding can either be measured using a standardized in vitro method or it can be estimated using an in silico method. The distribution of each component in various parts of the body is estimated using an in silico method. The rate of nitric oxide release is estimated using an in vitro endothelial cell model. The time course of prodrug, its active metabolites and nitric oxide can be simulated in human and animal using this physiologically based pharmacokinetic/pharmacodynamic model provided that the corresponding in vitro and in silico data are used as inputs.
(§6) Representative in vitro tests or in silico estimates include: (a) pKa estimation or measurement; (b) Log P measurement or in silico estimation; (c) Solubility in various physiological fluids; (d) Permeability. Caco-2 and/or NOVOKIN's proprietary animal and human cell lines can be used to obtain this parameter; (e) Metabolic rate in the intestine and liver. Human or animal intestinal microsomes, S9 fraction, and cytosol can be used for this purpose. Human or animal hepatocytes, liver microsomes, S9 fraction, and cytosol can also be used; (f) Hydrolysis in human or animal plasma; (g) Serum or plasma protein binding. It can be measured in vitro or estimated in silico; (h) The rate of NO release; (i) Existing pharmacokinetic and pharmacodynamic data of NSAID or a biocompatible agent; (j) Existing NO release rate of known diazeniumdiolate if applicable; (k) Stability in gastric and intestinal environment; and (l) In silico volume of distribution estimation.

[9] = Hydrolysis in rat intestinal microsomes; type: in vitro ADME
Excerpt: as §5, §6
(§7) Whenever in vitro estimate is attainable, the in vitro results will be used, for example, plasma protein binding. Methods reported by Bowalgaha & Miners (2001), Martignoni et al. (2006), Tong et al. (2001) and Thulesen et al. (1999) were used for in vitro and in vivo scale-up for clearance in the intestine, absorption rate constant and hepatic clearance. The simulation begins with no material in all compartments except for the initial bolus in one compartment (typically the stomach compartment). The simulation then estimates the changing distribution of the material with time.

[10] = Stability in gastric environment (gastric decay rate); type: in vitro ADME
Excerpt: as §5, §6

[11] = Hydrolysis in rat liver microsomes; type: in vitro ADME
Excerpt: as §5, §6, §7

[12] = Hydrolysis in human intestinal microsomes; type: in vitro ADME
Excerpt: as §5
The selection of in vitro tests is designed to provide parameters for the above mentioned model. The use of an inappropriate test would result in wrong predictions. For example, Knaus et al. (2005) used guinea pig serum and porcine esterases to hydrolyze their O^2-substituted diazeniumdiolate derivatives of ASPIRIN, as disclosed in U.S. Ser. No. 60/681,842. These tests provided very little information in terms of in vivo human NO-NSAID metabolism rate and the extent to which metabolic conversion to NO donor and NSAID occurred. […] The half-life values were less than one minute. Based on these observations, it has become apparent that prior to entering the systemic circulation, it is likely that the NO-NSAID would have been hydrolyzed in the enterocytes and little or no NO-NSAID would have been detected in the blood stream. Furthermore, the release of NO will commence immediately once the NO donor is detached from the NSAID.
as §6, §7

[13] = Stability in intestinal lumen (decay rate); type: in vitro ADME
Excerpt: as §5, §6

[14] = Hydrolysis in various enzymatic preparations (rat and human intestinal and liver microsomes)
[15] = Hydrolysis in human liver microsomes; type: in vitro ADME
Excerpt: as §5, with “The” for “The physiologically based pharmacokinetic/pharmacodynamic model of the present invention contains a series of compartments that describe the time course of a nonsteroidal anti-inflammatory prodrug, its active metabolites and nitric oxide release in intestine, liver, kidneys, blood/plasma and heart after prodrug administration. The”
The selection of in vitro tests is designed to provide parameters for the above mentioned model. The use of an inappropriate test would result in wrong predictions.
as §6
The simulation begins with no material in all compartments except for the initial bolus in one compartment (typically the stomach compartment). The simulation then estimates the changing distribution of the material with time.

Time to complete hydrolysis (cleavage of the diazeniumdiolate) [1]: 10 min
Chemical stability (in words) ([2]; pH range 2.5-7.0, 30 minute period): underwent rapid degradation
Structure (SMILES): COc1ccc2cc(C(C)C(=O)OC3CNC(C(=O)OCON=[N+]([O-])N(C)C)C3)ccc2c1 (stereo not shown) [Compound 1]

Time to complete hydrolysis (cleavage of the diazeniumdiolate) [1]: 30 min
Stability (loss of diazeniumdiolate), pH 2.5 ([2]; 30 min, pH 2.5): ✓
Stability (loss of diazeniumdiolate), pH 5.0 ([2]; 30 min, pH 5.0): ✓
Chemical stability (in words) ([2]; pH 2.5-5.0, 30 minute period): stable
Chemical stability (in words) ([2]; pH 7.0, 30 minute period): much slower rate of decomposition
Structure (SMILES): COc1ccc2cc(C(C)C(=O)OC3CC(C(=O)OCON=[N+]([O-])N(C)C)N(C(C)=O)C3)ccc2c1 (stereo not shown) [Compound 2]

Structure (SMILES): COc1ccc2cc(C(C)C(=O)OCON=[N+]([O-])N(C)C)ccc2c1 (stereo not shown) [DMA-NO-NAP, dimethylamino-diazeniumdiolate-naproxen]
AAP/Cr (urine alanine aminopeptidase to creatinine), Mean [3]: 132.412
Ulcer Indices, Mean [4]: 1.695
Ulcerogenicity (in words) [4]: somewhat less ulcerogenic
PGI2/TXA2 ratio comparison (in words) [5]: achieving statistical significance (p<0.05)
Cardiac Tissue PGI2/TXB2, Mean [5]: 5.157
Serum Nitrate Concentrations, Mean [6]: 768.000
Urine NAG/Cr values, Mean [7]: 20.403

Time to complete hydrolysis (initial cleavage of both esters) ([1]; liver microsomes): 30 min
Structure (SMILES): COc1ccc2cc(C(C)C(=O)OCOC(=O)CCC(NC(C)=O)C(=O)OCOC(=O)C(C)c3ccc4cc(OC)ccc4c3)ccc2c1 (stereo not shown) [Compound 9]

Structure (SMILES): COc1ccc2cc(C(C)C(=O)OCOC(=O)CCC(NC(=O)C(C)(C)C)C(=O)OCON=[N+]([O-])N(C)C)ccc2c1 (stereo not shown) [CMD 113]
Hydrolysis of the NO-AA in rat plasma (in words) ([8]; NO-AA formed from the prodrug): relatively fast rate
plasma decay rate constant ([8]; Rat): 1.2 min⁻¹
NO-AA half-life in plasma ([8]; Rat, NO-AA formed from the prodrug): 9.2 min
intestinal molar percent conversion to Naproxen [9]: 62%
intestinal microsomal activity ([9]; model input): 2 mL/min/organ
gastric decay rate constant ([10]; Human): 0 /mint
gastric decay rate constant ([10]; Rat): 0 /mint
liver molar percent conversion to Naproxen [11]: 90%
liver microsomal activity ([11]; model input): 6545 mL/min/organ
intestinal molar percent conversion to Naproxen [12]: 75%
intestinal microsomal activity ([12]; model input): 4813 mL/min/organ
intestinal lumen decay rate constant ([13]; Human): 0.2 min⁻¹
intestinal lumen decay rate constant ([13]; Rat): 0.2 min⁻¹
Stability of the NO-AA formed (in words) ([14]; intestinal and liver microsomes of human and rats): relatively stable
Initial loss of the prodrug candidate (in words) ([14]; various enzymatic preparations): rapid initial loss
liver molar percent conversion to Naproxen [15]: 72%
liver microsomal activity ([15]; model input): 434763 mL/min/organ

Structure (SMILES): CS(=O)(=O)c1ccc(C2=C(c3ccccc3)C(=O)OC2)cc1 [ROF, Rofecoxib]
Urine AAP/creatinine ratio change (in words) [3]: did cause an increase
AAP/Cr (urine alanine aminopeptidase to creatinine), Mean [3]: 538.367
Ulcer Indices, Mean [4]: 0.000
Ulcerogenicity (in words) [4]: not significantly different from vehicle
PGI2/TXA2 ratio comparison (in words) [5]: lower ratios than vehicle
Cardiac Tissue PGI2/TXB2, Mean [5]: 2.765
Serum Nitrate Concentrations, Mean [6]: 55.818
Urine NAG/Cr values, Mean [7]: 24.176
